Test results taken from ChEMBL document CHEMBL3045673, “Synthesis of some novel 2-substituted benzoxazoles as anticancer, antifungal, and antimicrobial agents” (2008).
Activity calls are given as the source filed them. The rule behind the calls is not given here.

What was measured:
[1] = test system: WiDr; test: Cytotoxicity against Homo sapiens (human) WiDr cells by MTT assay; assay type: functional, cell-based
[2] = test system: HepG2; test: Cytotoxicity against Homo sapiens (human) HepG2 cells by MTT assay; assay type: functional, cell-based
[3] = test system: MCF7; test: Cytotoxicity against Homo sapiens (human) MCF7 cells by MTT assay; assay type: functional, cell-based
[4] = test system: HeLa; test: Cytotoxicity against Homo sapiens (human) HeLa cells by MTT assay; assay type: functional, cell-based
[5] = test system: Staphylococcus aureus; test: Antibacterial activity against Staphylococcus aureus at 10 ug/ml after 24 hr by disk diffusion method; assay type: functional; conditions: read-out: DIZ
[6] = test system: Pseudomonas aeruginosa; test: Antibacterial activity against Pseudomonas aeruginosa at 10 ug/ml after 24 hr by disk diffusion method; assay type: functional; conditions: read-out: DIZ
[7] = test system: Klebsiella pneumoniae; test: Antibacterial activity against Klebsiella pneumoniae at 10 ug/ml after 24 hr by disk diffusion method; assay type: functional; conditions: read-out: DIZ
[8] = test system: Aspergillus flavus; test: Antifungal activity against Aspergillus flavus at 50 ug/ml after 48 hr by agar plate diffusion method; assay type: functional
[9] = test system: Aspergillus niger; test: Antifungal activity against Aspergillus niger at 50 ug/ml after 48 hr by agar plate diffusion method; assay type: functional

SMILES	Activity [1]	Activity [2]	Activity [3]	Activity [4]	zone of inhibition at 10 µg/mL [5]	zone of inhibition at 10 µg/mL [6]	zone of inhibition at 10 µg/mL [7]	inhibition at 50 µg/mL [8]	inhibition at 50 µg/mL [9]
N#C/C(=N\Nc1ccc(Br)cc1)c1nc2cc(Cl)ccc2o1	inactive	Active	Active	Active	10 mm	10 mm	10 mm	–	–
COc1ccc(N/N=C(\C#N)c2nc3cc(Cl)ccc3o2)cc1	Active	Active	Active	Active	10 mm	5 mm	5 mm	50%	65%
N#C/C(=C\c1ccccc1)c1nc2cc(Cl)ccc2o1	inactive	inactive	Active	inactive	10 mm	10 mm	10 mm	60%	65%
N#C/C(=N\Nc1ccccc1)c1nc2cc(Cl)ccc2o1	inactive	Active	inactive	Active	10 mm	10 mm	10 mm	–	–
N#C/C(=N\Nc1ccc(Cl)cc1)c1nc2cc(Cl)ccc2o1	inactive	inactive	Active	inactive	5 mm	10 mm	10 mm	65%	70%
COc1ccc(/C=C(\C#N)c2nc3cc(Cl)ccc3o2)cc1	Active	Active	Active	Active	5 mm	10 mm	10 mm	65%	65%
N#CC(=C1CCCCC1)c1nc2cc(Cl)ccc2o1	Active	Active	inactive	Active	10 mm	10 mm	5 mm	75%	60%
N#CC(=C1CCCC1)c1nc2cc(Cl)ccc2o1	Active	Active	Active	Active	15 mm	10 mm	10 mm	60%	75%
COc1cc(/C=C(\C#N)c2nc3cc(Cl)ccc3o2)cc(OC)c1OC	Active	Active	Active	Active	15 mm	15 mm	10 mm	85%	80%
N#C/C(=C\c1ccc(O)cc1)c1nc2cc(Cl)ccc2o1	inactive	Active	inactive	Active	10 mm	10 mm	10 mm	60%	50%
COc1cc(/C=C(\C#N)c2nc3cc(F)ccc3o2)cc(OC)c1OC	Active	Active	Active	Active	20 mm	20 mm	15 mm	90%	95%
